Data set [1] in a line: Approximate (kinetic) solubility estimate by aliquot addition with visual inspection. The class given is physicochemical. The settings on record: for solubility: thermodynamic from solid, ambient temperature. The procedure: Weighed samples were treated with aliquots of a solvent or solvent mixture at RT. The mixtures were sonicated between additions to facilitate dissolution. Complete dissolution of the test material was determined by visual inspection. Solubility was estimated based on the total solvent used to provide complete dissolution. The actual solubility may be greater than the value calculated because of the use of solvent aliquots that were too large or due to a slow rate of dissolution. […] If complete dissolution was achieved as a result of only one aliquot addition, the solubility is expressed as “greater than.”
Solubilities were estimated by adding measured aliquots of solvent to weighed amounts of cannabidiol at room temperature (RT). Samples were sonicated in between aliquot additions and dissolution was judged by visual inspection.

Data set [2] in a line: Colour change of solutions from solubility estimates at room temperature. The class given is physicochemical. As to conditions: acetone, acetonitrile, DMA, DMF, p-dioxane, ethanol, IPOAc, MEK and methanol; after 1-3 days at room temperature. As for the experimental part: Kinetic solubility estimates of cannabidiol were determined in various solvents to aid in designing screening experiments (Tables 1 and 2). Solubilities were estimated by adding measured aliquots of solvent to weighed amounts of cannabidiol at room temperature (RT). Samples were sonicated in between aliquot additions and dissolution was judged by visual inspection. Discoloration of the solutions produced from solubility estimates in acetone, acetonitrile, DMA, DMF, p-dioxane, ethanol, IPOAc, MEK and methanol were observed after 1-3 days at room temperature.

Values after ≈ are worked out from the molar mass of the structure shown.

Consider `C=C(C)[C@@H]1CCC(C)=C[C@H]1c1c(O)cc(CCCCC)cc1O` [Cannabidiol], for which the solubility was 23 mg/mL (≈ 73.1 mM) in data set [1] (organic solvent or mixture, Acetone); over 50 mg/mL in data set [1] (organic solvent or mixture, Acetonitrile); 15 mg/mL (≈ 47.7 mM) in data set [1] (organic solvent or mixture, Cyclohexane); 19 mg/mL (≈ 60.4 mM) in data set [1] (organic solvent or mixture, DCM); 21 mg/mL (≈ 66.8 mM) in data set [1] (organic solvent or mixture, DMSO); over 57 mg/mL in data set [1] (organic solvent or mixture, Diethyl Ether). The solubility in data set [1] (organic solvent or mixture, EtOAc) was over 46 mg/mL; in data set [1] (organic solvent or mixture, IPA) it was 14 mg/mL (≈ 44.5 mM); in data set [1] (organic solvent or mixture, IPOAc), over 68 mg/mL; in data set [1] (organic solvent or mixture, MEK), over 55 mg/mL; in data set [1] (organic solvent or mixture, MIBK), over 59 mg/mL; in data set [1] (organic solvent or mixture, MTBE) it was 34 mg/mL (≈ 108 mM). Further, the solubility in data set [1] (organic solvent or mixture, MeOH) was over 57 mg/mL; in data set [1] (organic solvent or mixture, NMP), 29 mg/mL (≈ 92.2 mM); in data set [1] (organic solvent or mixture, Octanol), 13 mg/mL (≈ 41.3 mM); in data set [1] (organic solvent or mixture, TFE), under 1 mg/mL; in data set [1] (organic solvent or mixture, THF), over 71 mg/mL; in data set [1] (organic solvent or mixture, p-dioxane), over 48 mg/mL. The solubility in data set [1] (Water) was under 1 mg/mL. For the same compound, the Aqueous solubility estimate in data set [1] (water, aliquot addition method) is under 1 mg/mL. Also, the “Discoloration of solutions from solubility estimates” value in data set [2] is reported as “Discoloration”.
